Among the data in patent US20210212957A1, “MEDICAL DEVICE FOR PREVENTING AND/OR TREATING INFECTIONS OF SKIN LESIONS” (FASTMEDITALIA S.R.L., priority 2020, published 2021) are Bacterial reduction % values, retold here.

The test system of this assay is Staphylococcus aureus (gram-positive bacterium; ATCC 6538). Description: bacterial reduction in a bacterial suspension in dynamic contact with the medical device. The assay is classed as cell-based. The settings on record: temperature environment; dynamic contact time 1 hour; 50 grams of bacterial suspension at 10^5 cells, 1 gram of medical device where present. Here is the method:
In Table 1, 50 grams of bacterial suspension at a concentration of 10^5 cells was subjected to dynamic contact with 1 gram of the medical device in the presence of cocamido-propyl-betaine (an amphoteric surfactant).
The same experiment was then carried out using no surfactant at all (Table 2) or non-ionic or anionic surfactants (Tables 3 and 4).
Turning to Polyoxyethylenesorbitan monolaurate, the Bacterial reduction % is 5%.

“cocamidopropyl betaine [2 g/l of cocamidopropyl betaine]” displayed a Bacterial reduction % of 12%.

Regarding `CCCCCCCCCCCCOS(=O)(=O)[O-].[Na+]` [Sodium dodecilsulphate], the Bacterial reduction % stood at 16%.
